Experimental data reported in PubChem BioAssay (NCI).
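1) Cells in 96-well plates. 2) Compound, 48 h, 5 concentrations. 3) Linear interpolation between surrounding doses. 4) Unreached endpoint = highest concentration. GI50 marks 50% less growth. The concentration for full growth arrest is given as TGI.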

Columns and labels:
Assay in all cases: DTP human tumour cell line panel, 48 h
[1] = test system: OVCAR-3 ovarian
[2] = test system: SN12C renal
[3] = test system: HOP-62 NSCLC
[4] = test system: IGROV1 ovarian
[5] = test system: SW-620 colon
[6] = test system: UO-31 renal
[7] = test system: NCI-H23 lung
[8] = test system: K-562 leukemia
[9] = test system: SK-MEL-28 melanoma
[10] = test system: MDA-MB-435
[11] = test system: KM12 colon
[12] = test system: COLO 205 colon
[13] = test system: NCI-H226 lung
[14] = test system: HS 578T breast
[15] = test system: SNB-75 CNS
[16] = test system: M14 melanoma
[17] = test system: A549 NSCLC
[18] = test system: NCI/ADR-RES ovarian
[19] = test system: SF-295 CNS
[20] = test system: UACC-257 melanoma
[21] = test system: MCF7 breast
[22] = test system: U251 CNS
[23] = test system: OVCAR-5 ovarian
[24] = test system: TK-10 renal
[25] = test system: HCT-116 colon
[26] = test system: T-47D breast
[27] = test system: HCT-15 colon
[28] = test system: HL-60(TB) leukemia
[29] = test system: UACC-62 melanoma
[30] = test system: HT29 colon
[31] = test system: SNB-19 CNS
[32] = test system: CAKI-1 renal
[33] = test system: EKVX NSCLC
[34] = test system: NCI-H460 lung
[35] = test system: MDA-MB-231 breast
[36] = test system: ACHN renal
[37] = test system: MALME-3M melanoma
[38] = test system: 786-0 renal
[39] = test system: SF-539 CNS
[40] = test system: SR leukemia
[41] = test system: MOLT-4 leukemia
[42] = test system: CCRF-CEM leukemia
[43] = test system: RPMI-8226 leukemia
[44] = test system: SF-268 CNS
[45] = test system: SK-MEL-5 melanoma
[46] = test system: OVCAR-4 ovarian
[47] = test system: RXF 393 renal
[48] = test system: LOX IMVI melanoma
[49] = test system: OVCAR-8 ovarian
[50] = test system: HCC-2998 colon
[51] = test system: NCI-H522 lung
[52] = test system: SK-OV-3 ovarian
[53] = test system: HOP-92 NSCLC
[54] = test system: DU-145 prostate
[55] = test system: SK-MEL-2 melanoma

For COc1cccc2c1C(=O)c1c(O)c3c(c(O)c1C2=O)C[C@@](O)(/C(C)=N/NC(=O)c1ccc(Cl)c(Cl)c1)C[C@@H]3OC1CC(N)C(O)C(C)O1 (stereo partly specified), the TGI [1] was 0.934 µM, the TGI [2] was 0.877 µM and the TGI [3] was 1.28 µM. For the same compound, the TGI [4] was > 100 µM, the TGI [5] was 1.35 µM and the TGI [6] was > 100 µM. The TGI [7] was 0.618 µM, the TGI [8] was 1.06 µM and the TGI [9] was 0.274 µM. It also gave a TGI [10] of 1.11 µM, a TGI [11] of 0.624 µM and a TGI [12] of 1.5 µM. The TGI [13] was 0.231 µM, the TGI [14] was 3.18 µM and the TGI [15] was 2.02 µM. The TGI [16] was 1.2 µM, the TGI [17] was 2.68 µM and the TGI [18] was 2.84 µM. For the same compound, the TGI [19] was 0.527 µM, the TGI [20] was 1.05 µM and the TGI [21] was > 100 µM. The TGI [22] was 0.363 µM, the TGI [23] was 0.686 µM and the TGI [24] was 1.83 µM. The TGI [25] was 1.04 µM, the TGI [26] was > 100 µM and the TGI [27] was 1.16 µM. The TGI [28] was 0.397 µM, the TGI [29] was 0.34 µM and the TGI [30] was 0.379 µM. It also gave a TGI [31] of 0.445 µM, a TGI [32] of 0.562 µM and a TGI [33] of 7.4 µM. The TGI [34] was > 100 µM, the TGI [35] was 2.51 µM and the TGI [36] was 0.256 µM. The TGI [37] was 0.0838 µM and the TGI [38] was 2.1 µM.

Compound Cc1ccc(S(=O)(=O)N2CCN3CCN(CCN(C)CCN4CCN(CC4)CCN(S(=O)(=O)c4ccc(C)cc4)CCN(S(=O)(=O)c4ccc(C)cc4)CCN(S(=O)(=O)c4ccc(C)cc4)CCN(S(=O)(=O)c4ccc(C)cc4)CCN4CCN(CCN(C)CCN5CCN(CC5)CCN(S(=O)(=O)c5ccc(C)cc5)CCN(S(=O)(=O)c5ccc(C)cc5)CCN(S(=O)(=O)c5ccc(C)cc5)CC2)CC4)CC3)cc1 has a TGI [39] of 4.45 µM, a TGI [8] of 11 µM and a TGI [15] of 5.58 µM. The TGI [40] was 10.6 µM, the TGI [18] was > 100 µM and the TGI [41] was 2.91 µM. The TGI [21] was 3.3 µM, the TGI [23] was 3.42 µM and the TGI [27] was 2.82 µM. For the same compound, the TGI [28] was 2.7 µM, the TGI [33] was 5.82 µM and the TGI [42] was 0.972 µM. For the same compound, the TGI [43] was 11.9 µM and the TGI [44] was 6.62 µM.

Work on CC1(C)CC2CC(C)(CN2c2ncnc3ccc(Br)cc23)C1 (stereo unspecified) yielded a GI50 [1] of 2.72 µM, a TGI [1] of 13.1 µM and a GI50 [2] of 10.3 µM. It also gave a TGI [2] of 21.9 µM, a GI50 [45] of 8.88 µM and a TGI [45] of 21.6 µM. It also gave a GI50 [3] of 12.9 µM, a TGI [3] of 25.6 µM and a GI50 [4] of 10.9 µM. The TGI [4] was 22.8 µM, the GI50 [5] was 15 µM and the TGI [5] was 30.7 µM. It also gave a GI50 [46] of 14.1 µM, a TGI [46] of 27.1 µM and a GI50 [6] of 14 µM. The TGI [6] was 56.1 µM, the GI50 [47] was 11 µM and the TGI [47] was 23.6 µM. The GI50 [7] was 8.74 µM, the TGI [7] was 20.8 µM and the GI50 [8] was 1.62 µM. For the same compound, the TGI [8] was 6.79 µM, the GI50 [9] was 13.9 µM and the TGI [9] was 28 µM. For the same compound, the GI50 [10] was 3.98 µM, the TGI [10] was 27.7 µM and the GI50 [11] was 11.1 µM. The TGI [11] was 26.5 µM, the GI50 [12] was 15.4 µM and the TGI [12] was 29.8 µM. It also gave a GI50 [13] of 3.32 µM, a TGI [13] of 16.2 µM and a GI50 [48] of 13.7 µM. It also gave a TGI [48] of 26.5 µM, a GI50 [14] of 10.3 µM and a TGI [14] of 30.4 µM. It also gave a GI50 [16] of 11 µM, a TGI [16] of 22.9 µM and a GI50 [17] of 2.82 µM. The TGI [17] was 9.11 µM, the GI50 [18] was 12.8 µM and the TGI [18] was 25.4 µM. The GI50 [41] was 0.134 µM, the TGI [41] was 11.2 µM and the GI50 [19] was 3.34 µM. It also gave a TGI [19] of 16.3 µM, a GI50 [49] of 12.3 µM and a TGI [49] of 25 µM. It also gave a GI50 [22] of 13.3 µM, a TGI [22] of 26.1 µM and a GI50 [23] of 14.1 µM. It also gave a TGI [23] of 27.1 µM, a GI50 [24] of 11.4 µM and a TGI [24] of 23.6 µM. For the same compound, the GI50 [26] was 13 µM, the TGI [26] was 31.2 µM and the GI50 [50] was 11.7 µM. It also gave a TGI [50] of 23.9 µM, a GI50 [27] of 15.5 µM and a TGI [27] of 28.9 µM. The GI50 [28] was 1.38 µM, the TGI [28] was 3.48 µM and the GI50 [51] was 13 µM. The TGI [51] was 29.3 µM, the GI50 [29] was 5.76 µM and the TGI [29] was 19.5 µM. The GI50 [31] was 14.4 µM, the TGI [31] was 30.5 µM and the GI50 [32] was 10.2 µM. It also gave a TGI [32] of 22 µM, a GI50 [34] of 11.1 µM and a TGI [34] of 35.2 µM. It also gave a GI50 [42] of 6.61 µM, a TGI [42] of 39.8 µM and a GI50 [52] of 16.8 µM. For the same compound, the TGI [52] was 31.2 µM, the GI50 [35] was 2 µM and the TGI [35] was 12.4 µM. It also gave a GI50 [43] of 2.58 µM, a TGI [43] of 13.5 µM and a GI50 [36] of 14.1 µM. For the same compound, the TGI [36] was 27 µM, the GI50 [44] was 17.9 µM and the TGI [44] was 37.9 µM. For the same compound, the GI50 [53] was 13.4 µM, the TGI [53] was 27.3 µM and the GI50 [54] was 12.4 µM. For the same compound, the TGI [54] was 24.9 µM, the GI50 [55] was 28.8 µM and the TGI [55] was > 100 µM. The GI50 [37] was 0.195 µM, the TGI [37] was 11.6 µM and the GI50 [38] was 12.8 µM. The TGI [38] was 25.4 µM.
